Results from PMC4753534 (Journal of Medicinal Chemistry, 2015).
Like-named read-outs stand apart in the source and are kept apart here.

Tests used:
[1] = tested on: HCV-Luc (HCV JFH-1 strain, genotype 2a); assay: microbe, parasite or virus in culture; format: cell-based; details: Hepatitis C virus, GETYPE2A, values in nM
[2] = mouse, i.p., 24 h, previously reported, cited from earlier work
[3] = target: H1-histamine receptor (H1HR) (Homo sapiens, UniProt P35367); assay: H1HR inhibition assay; format: cell-based; details: read-out: H1HR inhibition
Chain of H1-histamine receptor (H1HR) (P35367 whole entry): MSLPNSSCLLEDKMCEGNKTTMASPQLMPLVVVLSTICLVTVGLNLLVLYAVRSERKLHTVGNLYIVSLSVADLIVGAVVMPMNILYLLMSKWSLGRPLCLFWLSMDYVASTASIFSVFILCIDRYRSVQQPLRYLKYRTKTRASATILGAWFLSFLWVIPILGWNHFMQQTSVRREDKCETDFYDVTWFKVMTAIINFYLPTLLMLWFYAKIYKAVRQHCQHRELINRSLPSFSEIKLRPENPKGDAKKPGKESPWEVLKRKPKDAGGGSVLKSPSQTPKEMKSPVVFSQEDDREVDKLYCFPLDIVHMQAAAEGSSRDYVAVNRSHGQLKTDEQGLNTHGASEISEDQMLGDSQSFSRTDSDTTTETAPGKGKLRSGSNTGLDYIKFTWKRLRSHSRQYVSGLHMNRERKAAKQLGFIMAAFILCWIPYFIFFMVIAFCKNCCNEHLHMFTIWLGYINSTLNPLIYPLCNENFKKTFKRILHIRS

[4] = tested on: hepatitis B virus, HCV replicon, herpes simplex virus-1, human cytomegalovirus, vaccinia virus, dengue virus, influenza A (H1N1) virus, respiratory syncytial …; format: cell-based

## NCCOCCN1CCN(C(c2ccccc2)c2ccc(Cl)cc2)CC1 (racemic) [Rac-23, 2-(2-(4-((4-Chlorophenyl) (Phenyl)methyl)piperazin-1-yl)ethoxy)ethanamine]
[1]
  EC50: < 8 nM

## CN1CCN([C@@H](c2ccccc2)c2ccc(Cl)cc2)CC1 [(S)-2, reference compound]
[2]; 50 mg/kg
  T1/2 Liver: 1.99 h

## Clc1ccc([C@H](c2ccccc2)N2CCNCC2)cc1 [(S)-1]
[3]
  inhibition at 0.01 µM: ~10%
[2]; 10 mg/kg
  T1/2 Liver: 4.7 h

## CN1CCN(C(c2ccc(Cl)cc2)c2ccc(Cl)cc2)CC1 [Compound 30, 1-(Bis(4-chlorophenyl)methyl)-4-methylpiperazine]
Alanine transaminase; mouse serum, 10 mg/kg i.p., most time points except t = 2 and 4 h
  ALT levels: ≤ 80 U/L
Alanine transaminase; mouse, single 10 mg/kg i.p., ALT also elevated with vehicle only
  hepatotoxicity: no clear hepatotoxicity was detected

## CCN1CCN([C@@H](c2ccccc2)c2ccc(Cl)cc2)CC1 [(S)-10, (S)-1-((4-Chlorophenyl) (phenyl)methyl)-4-ethylpiperazine]
[4]
  antiviral activity in the NIAID antiviral screen: Little or no antiviral activity was detected
